Laboratory results reported in patent US20230364111A1 (priority 2020, published 2023).
Entries after “also recorded” stand apart in the source; their conditions may differ. Read-outs that look alike come from different tables or passages of the source.

Tests used:
SARS-CoV-2 Wk-521 strain = assay: SARS-CoV-2 infection assay, viral RNA in culture supernatant (VeroE6/TMPRSS2 cells); assay type: cell-based; details: for anti-SARS-CoV-2 activity: cell-based assay, VeroE6/TMPRSS2; for SARS-CoV-2 propagation in cultured cells: statement in words; for viral RNA in the culture supernatant: natural oxysterols up to 30 μM, semi-synthetic up to 15 μM; for production of viral RNA with signaling pathway inhibitors: 10 μM
SARS-CoV-2 [1] = assay: Time of addition assay, SARS-CoV-2 viral RNA; assay type: cell-based; details: 15 μM RDV, 15 μM CLQ, 10 μM Oxy210, 10 μM Oxy133
SARS-CoV-2 [2] = assay: SARS-CoV-2-induced cytopathic effect (CPE) in VeroE6/TMPRSS2 cells; assay type: cell-based; details: for virus-induced CPE: 48 h post-inoculation, 10 μM RDV, 30 μM cholesterol, 30 μM 7-KC, 10 μM Oxy133, 10 μM Oxy210, MOI 0.001; for SARS-CoV-2-induced cytopathic effect (CPE): remdesivir 20 uM, 7-ketocholesterol 40 uM, 27-hydroxycholesterol 20 uM
SARS-CoV-2 [3] = assay type: cell-based
in vitro [4] = details: African green monkey
in vitro [5] = details: human
[6] = system: SARS-CoV-2 (isolate USA WA1/2020); assay: SARS-CoV-2 infection of Calu-3 cells (dsRNA+ cells, automated microscopy); assay type: cell-based; details: Severe acute respiratory syndrome coronavirus 2, Calu-3, 48 h
Experimental: FIGS. 12A-12C depict dose-response curves for Oxy232. (FIG. 12A) Secreted viral RNA in the VeroE6 culture supernatant 24 h post-inoculation was quantified by real-time RT-PCR. Cell viability of Oxy232 treated cells evaluated with an MTT assay. (FIG. 12B) Secreted viral RNA of 3 SARS-CoV-2 strains in the VeroE6 culture supernatant 24 h post-inoculation was quantified by real-time RT-PCR. (FIG. 12C) Calu-3 (ATCC) cells were pretreated with Oxy232 for 2 hours prior to continuous infection with SARS-CoV-2 (isolate USA WA1/2020) at MOI=0.5. 48 h post-infection, cells were fixed, immune-strained, and imaged by automated microscopy for infection (dsRNA+ cells/total cell number) and cell number.
According to a previously published report (Ohashi et al., Identification of Anti-Severe Acute Respiratory Syndrome-Related Coronavirus 2 (SARS-CoV-2) Oxysterol Derivatives In Vitro. Int J Mol Sci. 2021; 22(6):3163. PMCID: PMC8003796) inventors have tested a collection of naturally occurring and semisynthetic oxysterol derivatives in a SARS-CoV-2 cell culture infection assay in VeroE6/TMPRSS2 cells. […] See, Ohashi et al., Int J Mol Sci. 2021; 22(6):3163 and Dittmar et al. Drug repurposing screens reveal cell-type-specific entry pathways and FDA-approved drugs active against SARS-Cov-2. Cell Rep. […] PMCID: PMC7985926. […] Without wishing to be bound by a theory, biological activities of oxysterols, including measures of cell viability, can heavily depend on in vitro assay conditions, such as the fetal bovine serum concentration or the duration of pretreatment with the compounds, among other factors, that may not translate to the in vivo safety of the compounds.

[7] = MTT assay, 24 h, VeroE6/TMPRSS2 cells
[8] = Severe acute respiratory syndrome coronavirus 2, VeroE6/TMPRSS2, 24 h, SARS-CoV-2 viral RNA in culture supernatant, 24 h post-inoculation, VeroE6/TMPRSS2 cells, read-out: IC90
[9] = Severe acute respiratory syndrome coronavirus 2, SARS-CoV-2 viral RNA in culture supernatant, 24 h post-inoculation, VeroE6/TMPRSS2 cells, read-out: IC50
[10] = SARS-CoV-2 viral RNA in culture supernatant, 24 h post-inoculation, VeroE6/TMPRSS2 cells, read-out: IC50
[11] = SARS-CoV-2 viral RNA in culture supernatant, 24 h post-inoculation, VeroE6/TMPRSS2 cells, read-out: IC90

Row | Compound | CC50 (VeroE6/TMPRSS2 cells; [7]) | IC90 (SARS-CoV-2 Wk-521 strain; [8]) | IC50 (SARS-CoV-2 Wk-521 strain; [9]) | anti-SARS-CoV-2 activity (SARS-CoV-2 Wk-521 strain) | SARS-CoV-2 propagation in cultured cells (SARS-CoV-2 Wk-521 strain) | viral RNA in the culture supernatant (SARS-CoV-2 Wk-521 strain; 24 h post-inoculation) | further results
1 | CC(C)CC[C@@H](O)[C@@H](C)[C@H]1CC[C@H]2[C@@H]3CC=C4C[C@@H](O)CC[C@]4(C)[C@H]3CC[C@]12C [22(R)-OHC, 22(R)-hydroxycholesterol, reference compound] | > 30 µM | > 30 µM | 13.2 µM | modest anti-SARS-CoV-2 activities | substantially inhibited SARS-CoV-2 propagation |  | 
2 | CC(C)CC[C@H](O)[C@@H](C)[C@H]1CC[C@H]2[C@@H]3CC=C4C[C@@H](O)CC[C@]4(C)[C@H]3CC[C@]12C [22(S)-OHC, 22(S)-hydroxycholesterol, reference compound] | > 30 µM | > 30 µM | > 30 µM |  |  | did not show apparent reductions in viral RNA | 
3 | CC(C)[C@@H](O)CC[C@@H](C)[C@H]1CC[C@H]2[C@@H]3CC=C4C[C@@H](O)CC[C@]4(C)[C@H]3CC[C@]12C [24(S)-OHC, 24(S)-hydroxycholesterol, reference compound] | > 30 µM | > 30 µM | 1.3 µM | modest anti-SARS-CoV-2 activities | substantially inhibited SARS-CoV-2 propagation |  | 
4 | CCN(CC)CCCC(C)Nc1ccnc2cc(Cl)ccc12 (stereo not shown) [CLQ, chloroquine, reference compound] |  |  |  |  |  |  | viral RNA, compound present at entry (SARS-CoV-2 [1]; 1 h inoculation plus 2 h): showed the most inhibitory effect
5 | CC(C)CCC[C@@H](C)[C@H]1CC[C@H]2[C@@H]3CC=C4C[C@@H](O)CC[C@]4(C)[C@H]3CC[C@]12C [Cholesterol, reference compound] | > 30 µM | > 30 µM | > 30 µM |  |  | did not show apparent reductions in viral RNA | virus-induced CPE (SARS-CoV-2 [2]): but not cholesterol, reduced the SARS-CoV-2-induced CPE
6 | CS(=O)(=O)c1ccc(C(=O)Nc2ccc(Cl)c(-c3ccccn3)c2)c(Cl)c1 [GDC0449, reference compound] |  |  |  |  |  |  | production of viral RNA with signaling pathway inhibitors (SARS-CoV-2 Wk-521 strain; 24 h post-inoculation): did not decrease the viral RNA levels; also recorded: lack of antiviral activity
7 | CCCCCC[C@](C)(O)[C@H]1CC[C@H]2[C@@H]3C[C@H](O)[C@H]4C[C@@H](O)CC[C@]4(C)[C@H]3CC[C@@]21C [Oxy133, (3S,5S,6S,8R,9S,10R,13S,14S,17S)-17-((S)-2-hydroxyoctan-2-yl)-10,13-dimethyl hexadecahydro-1H-cyclopentalalphenanthrene-3,6-diol] | > 15 µM |  |  |  |  | did not show antiviral activity up to 15 μM | virus-induced CPE (SARS-CoV-2 [2]): blocked when treated with Oxy210 but not Oxy133; SARS-CoV-2 propagation / spread of infection (viral N protein, immunofluorescence) (SARS-CoV-2 [3]): blocked when treated with Oxy210 but not Oxy133; viral RNA, compound present during the whole life cycle (SARS-CoV-2 [1]; 24 h): but not the negative control, Oxy133, clearly reduced viral RNA levels; viral RNA, compound present post-entry (SARS-CoV-2 [1]; added 2 h post-inoculation for 21 h): but not the negative control, Oxy133, clearly reduced viral RNA levels; IC50 (SARS-CoV-2 Wk-521 strain; [10]): > 15 µM; IC90 (SARS-CoV-2 Wk-521 strain; [11]): > 15 µM
8 | C[C@]12CC[C@H](O)C[C@@H]1CC[C@@H]1[C@@H]2CC[C@@]2(C)[C@H]1CC[C@@H]2[C@](C)(O)CCc1ccc(F)cc1 [Oxy186, (3S,5S,8R,9S,10S,13S,14S,17S)-17-((R)-4-(4-fluorophenyl)-2-hydroxybutan-2-yl)-10,13-dimethylhexadecahydro-1H-cyclopenta[a]phenanthren-3-ol] | > 15 µM | > 15 µM | 7.4 µM |  |  | reduced viral RNA level in a dose-dependent manner | SARS-CoV-2-induced cytopathic effect (SARS-CoV-2 [2]; oxy8 7.5 uM, oxy16 20 uM, oxy186 20 uM, oxy210 10 uM, 48 h, VeroE6/TMPRSS2): protected cells from cytopathic effect; cytotoxicity / cell viability (VeroE6/TMPRSS2 cells; MTT assay, VeroE6/TMPRSS2 cells): No significant cytotoxicity; maximum reduction in viral RNA as compared to control (SARS-CoV-2 Wk-521 strain; at 12 μM): 83%
9 | CC(C)CCC[C@@H](C)[C@H]1CC[C@H]2[C@@H]3CC=C4[C@@H](O)[C@@H](O)CC[C@]4(C)[C@H]3CC[C@]12C [Oxy 4-beta-OHC, 4beta-hydroxysterol, reference compound] | > 30 µM |  |  |  |  | did not show apparent reductions in viral RNA | IC50 (SARS-CoV-2 Wk-521 strain; [10]): > 30 µM; IC90 (SARS-CoV-2 Wk-521 strain; [11]): > 30 µM
10 | CC(C)CCC[C@@H](C)[C@H]1CC[C@H]2[C@@H]3C(=O)C=C4C[C@@H](O)CC[C@]4(C)[C@H]3CC[C@]12C [Oxy 7-KC, 7-ketocholesterol, reference compound] | > 30 µM | > 30 µM | 14.5 µM | modest anti-SARS-CoV-2 activities | substantially inhibited SARS-CoV-2 propagation |  | virus-induced CPE (SARS-CoV-2 [2]): reduced the SARS-CoV-2-induced CPE; SARS-CoV-2-induced cytopathic effect (CPE) (SARS-CoV-2 [2]; 48 h, VeroE6/TMPRSS2): inhibited SARS-CoV-2-induced cytopathic effect; SARS-CoV-2 propagation / spread of infection (viral N protein, immunofluorescence) (SARS-CoV-2 [3]): reduced
11 | C[C@@H](CO)CCC[C@@H](C)[C@H]1CC[C@H]2[C@@H]3CC=C4C[C@@H](O)CC[C@]4(C)[C@H]3CC[C@]12C [Oxy 27-OHC, 27-hydroxycholesterol, reference compound] | > 30 µM | > 30 µM | 3.5 µM | modest anti-SARS-CoV-2 activities | substantially inhibited SARS-CoV-2 propagation |  | SARS-CoV-2-induced cytopathic effect (CPE) (SARS-CoV-2 [2]; 48 h, VeroE6/TMPRSS2): inhibited SARS-CoV-2-induced cytopathic effect
12 | CCC(CC)COC(=O)[C@H](C)N[P@](=O)(OC[C@H]1O[C@@](C#N)(c2ccc3c(N)ncnn23)[C@H](O)[C@@H]1O)Oc1ccccc1 [RDV, remdesivir, reference compound] |  | 2.5 µM | 1.5 µM |  |  |  | CC50 (VeroE6/TMPRSS2 cells; read-out: CC50 (VeroE6), VeroE6): > 10 µM; CC50 (in vitro [4]): > 10 µM; CC50 (in vitro [5]): > 10 µM; IC50 ([6]; read-out: IC50 (Calu-3)): 0.08 µM; IC90 ([6]; read-out: IC90 (Calu-3)): 0.16 µM; IC50 (SARS-CoV-2 Wk-521 strain; Severe acute respiratory syndrome coronavirus 2, Vero C1008, read-out: IC50 (VeroE6)): 1.5 µM; IC90 (SARS-CoV-2 Wk-521 strain; Severe acute respiratory syndrome coronavirus 2, Vero C1008, read-out: IC90 (VeroE6), SARS-CoV-2, VeroE6): 1.5 µM
13 | NC(=O)c1ccc(-c2nc(-c3ccc4c(c3)OCO4)c(-c3ccccn3)[nH]2)cc1 [SB431542, reference compound] |  |  |  |  |  |  | production of viral RNA with signaling pathway inhibitors (SARS-CoV-2 Wk-521 strain; 24 h post-inoculation): did not significantly inhibit the production of viral RNA; also recorded: lack of antiviral activity
